Test results taken from patent US11178871B2, “Herbicidal pyrimidine compounds” (BASF SE, priority 2016, dated 2021).

Key:
Assay type in all cases: in vivo
[1] = tested on: Alopecurus myosuroides; test: greenhouse test, post-emergence treatment, ALOMY
How it was run: (§1)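 Visual injury rating on a 0–100 scale (0 = no damage, 100 = aerial parts fully destroyed) after a 2–4 week test period. Foliar application of compound in aqueous suspension/emulsion to plants at 3–15 cm; greenhouse temperatures 10–25 °C or 20–35 °C depending on species.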

[2] = tested on: Amaranthus retroflexus; test: greenhouse test, post-emergence treatment, AMARE
How it was run: as §1

[3] = tested on: Apera spica-venti; test: greenhouse test, post-emergence treatment, APESV
Description: (§2) The culture containers used were plastic flowerpots containing loamy sand with approximately 3.0% of humus as the substrate. The seeds of the test plants were sown separately for each species.
(§3) For the post-emergence treatment, the test plants were first grown to a height of 3 to 15 cm, depending on the plant habit, and only then treated with the active ingredients which had been suspended or emulsified in water. For this purpose, the test plants were either sown directly and grown in the same containers, or they were first grown separately as seedlings and transplanted into the test containers a few days prior to treatment.
(§4) Depending on the species, the plants were kept at 10-25° C. or 20-35° C., respectively.
(§5) The test period extended over 2 to 4 weeks. During this time, the plants were tended, and their response to the individual treatments was evaluated.
(§6) Evaluation was carried out using a scale from 0 to 100. 100 means no emergence of the plants, or complete destruction of at least the aerial moieties, and 0 means no damage, or normal course of growth. A good herbicidal activity is given at values of at least 70 and a very good herbicidal activity is given at values of at least 85.
(§7) The plants used in the greenhouse experiments were of the following species: […]

[4] = tested on: Echinocloa crus-galli; test: greenhouse test, post-emergence treatment, ECHCG
How it was run: as §1

[5] = tested on: Matricaria inodora; test: greenhouse test, post-emergence treatment, MATIN; conditions: 2000 g/ha
Description: as §2, §3, §4, §5, §6, §7

[6] = tested on: Polygonum convolvulus; test: greenhouse test, post-emergence treatment, POLCO
Description: as §2, §3, §4, §5, §6, §7

[7] = tested on: Setaria viridis; test: greenhouse test, post-emergence treatment, SETVI
How it was run: as §1

[8] = tested on: Apera spica-venti; test: greenhouse test, pre-emergence treatment, APESV
How it was run: (§8)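 Herbicidal effect rated on a 0-100 scale, where 0 is normal growth and 100 is no emergence or destroyed aerial parts, 2 to 4 weeks after soil application at sowing.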

[9] = tested on: Echinocloa crus-galli; test: greenhouse test, pre-emergence treatment, ECHCG; conditions: 2000 g/ha
How it was run: as §8

[10] = tested on: Poa annua; test: greenhouse test, pre-emergence treatment, POAAN; conditions: 2000 g/ha
Description: as §2
For the pre-emergence treatment, the active ingredients, which had been suspended or emulsified in water, were applied directly after sowing by means of finely distributing nozzles. The containers were irrigated gently to promote germination and growth and subsequently covered with transparent plastic hoods until the plants had rooted. This cover caused uniform germination of the test plants, unless this had been impaired by the active ingredients.
as §4, §5, §6, §7

[11] = tested on: Abutilon theophrasti; test: greenhouse test, post-emergence treatment, ABUTH; conditions: 2000 g/ha
Description: as §2, §3, §4, §5, §6, §7

[12] = tested on: Avena fatua; test: greenhouse test, post-emergence treatment, AVEFA; conditions: 2000 g/ha
How it was run: as §1

[13] = 500 g/ha, printed under post-emergence, method not restated
[14] = 1000 g/ha, printed under post-emergence, method not restated

Cc1nc(C)c(-c2nc(C3CC3)ncc2-c2c(F)cccc2Cl)o1 [Ex. 309]
herbicidal activity ([1]; post-emergence, 1000 g/ha): very good (a very good herbicidal activity is given at values of at least 85) | herbicidal activity ([2]; 1000 g/ha): very good (a very good herbicidal activity is given at values of at least 85) | herbicidal activity ([3]; 1000 g/ha): very good (a very good herbicidal activity is given at values of at least 85) | herbicidal activity ([4]; post-emergence, 1000 g/ha): very good (a very good herbicidal activity is given at values of at least 85)

Clc1ccc(Cl)c(/C=C/c2nc(C3CC3)ncc2-c2ccccc2Cl)n1 [Ex. 257]
herbicidal activity [5]: good (A good herbicidal activity is given at values of at least 70)

CCc1nc(CC)c(-c2nc(C3CC3)ncc2-c2ccccc2Cl)o1 [Ex. 310]
herbicidal activity [1, 13]: very good (a very good herbicidal activity is given at values of at least 85) | herbicidal activity ([1]; post-emergence, 500 g/ha): very good (a very good herbicidal activity is given at values of at least 85) | herbicidal activity ([2]; 500 g/ha): very good (a very good herbicidal activity is given at values of at least 85) | herbicidal activity ([3]; 500 g/ha): very good (a very good herbicidal activity is given at values of at least 85) | herbicidal activity [4, 13]: very good (a very good herbicidal activity is given at values of at least 85) | herbicidal activity ([6]; 500 g/ha): very good (a very good herbicidal activity is given at values of at least 85)

CSc1ncc(-c2nc(C3CC3)ncc2-c2ccccc2Cl)cn1 [Ex. 248]
herbicidal activity ([1]; post-emergence, 2000 g/ha): very good (a very good herbicidal activity is given at values of at least 85) | herbicidal activity ([4]; post-emergence, 2000 g/ha): very good (a very good herbicidal activity is given at values of at least 85) | herbicidal activity ([7]; 2000 g/ha): very good (a very good herbicidal activity is given at values of at least 85) | herbicidal activity ([8]; 2000 g/ha): very good (a very good herbicidal activity is given at values of at least 85) | herbicidal activity [9]: very good (a very good herbicidal activity is given at values of at least 85) | herbicidal activity [10]: very good (a very good herbicidal activity is given at values of at least 85)

Clc1ccccc1-c1cnc(C2CC2)nc1-c1cccs1 [Ex. 29]
herbicidal activity ([2]; 2000 g/ha): very good (a very good herbicidal activity is given at values of at least 85) | herbicidal activity [5]: very good (a very good herbicidal activity is given at values of at least 85)

Clc1ccccc1-c1cnc(C2CC2)nc1-c1ncco1 [Ex. 315]
herbicidal activity ([1]; post-emergence, 2000 g/ha): very good (a very good herbicidal activity is given at values of at least 85) | herbicidal activity ([2]; 2000 g/ha): very good (a very good herbicidal activity is given at values of at least 85) | herbicidal activity ([3]; 2000 g/ha): very good (a very good herbicidal activity is given at values of at least 85) | herbicidal activity ([4]; 2000 g/ha, printed under post-emergence, method not restated): very good (a very good herbicidal activity is given at values of at least 85) | herbicidal activity ([4]; post-emergence, 2000 g/ha): very good (a very good herbicidal activity is given at values of at least 85)

Cc1ccc(-c2nc(C3CC3)ncc2-c2ccccc2I)o1 [Ex. 108]
herbicidal activity ([1]; post-emergence, 500 g/ha): good (A good herbicidal activity is given at values of at least 70) | herbicidal activity ([6]; 500 g/ha): very good (a very good herbicidal activity is given at values of at least 85)

Cc1cnc(-c2nc(C3CC3)ncc2-c2ccccc2Cl)o1 [Ex. 314]
herbicidal activity ([2]; 1000 g/ha): very good (a very good herbicidal activity is given at values of at least 85) | herbicidal activity ([3]; 1000 g/ha): very good (a very good herbicidal activity is given at values of at least 85) | herbicidal activity [4, 14]: very good (a very good herbicidal activity is given at values of at least 85) | herbicidal activity ([4]; post-emergence, 1000 g/ha): very good (a very good herbicidal activity is given at values of at least 85) | herbicidal activity ([7]; 1000 g/ha): very good (a very good herbicidal activity is given at values of at least 85)

OC(Cc1nc(C2CC2)ncc1-c1ccccc1Cl)c1c(Cl)ccc(Cl)c1Cl (stereo not drawn) [Ex. 231]
herbicidal activity ([4]; post-emergence, 2000 g/ha): very good (a very good herbicidal activity is given at values of at least 85) | herbicidal activity [5]: good (A good herbicidal activity is given at values of at least 70)

OCc1nc(C2CC2)ncc1-c1ccccc1Br [Ex. 13]
herbicidal activity ([1]; post-emergence, 250 g/ha): very good (a very good herbicidal activity is given at values of at least 85) | herbicidal activity ([4]; post-emergence, 250 g/ha): very good (a very good herbicidal activity is given at values of at least 85) | herbicidal activity ([6]; 250 g/ha): very good (a very good herbicidal activity is given at values of at least 85) | herbicidal activity ([8]; 250 g/ha): very good (a very good herbicidal activity is given at values of at least 85)

Fc1cccc(Cl)c1-c1cnc(C2CC2)nc1-c1ccoc1 [Ex. 41]
herbicidal activity ([1]; post-emergence, 2000 g/ha): very good (a very good herbicidal activity is given at values of at least 85) | herbicidal activity [5]: very good (a very good herbicidal activity is given at values of at least 85)

COC(=O)C(O)(CO)c1nc(C2CC2)ncc1-c1ccccc1Cl (stereo not drawn) [Ex. 230]
herbicidal activity [5]: good (A good herbicidal activity is given at values of at least 70)

CC(C)=CC(O)Cc1nc(C2CC2)ncc1-c1ccccc1Cl (stereo not drawn) [Ex. 223]
herbicidal activity [11]: very good (a very good herbicidal activity is given at values of at least 85) | herbicidal activity ([2]; 2000 g/ha): very good (a very good herbicidal activity is given at values of at least 85) | herbicidal activity ([4]; post-emergence, 2000 g/ha): very good (a very good herbicidal activity is given at values of at least 85) | herbicidal activity ([8]; 2000 g/ha): very good (a very good herbicidal activity is given at values of at least 85) | herbicidal activity [9]: very good (a very good herbicidal activity is given at values of at least 85) | herbicidal activity [10]: very good (a very good herbicidal activity is given at values of at least 85)

COC(=O)C(OC(C)=O)c1nc(C2CC2)ncc1-c1ccccc1Cl (stereo not drawn) [Ex. 222]
herbicidal activity [11]: very good (a very good herbicidal activity is given at values of at least 85) | herbicidal activity ([2]; 2000 g/ha): very good (a very good herbicidal activity is given at values of at least 85) | herbicidal activity [5]: very good (a very good herbicidal activity is given at values of at least 85)

Cc1nc(O)oc1-c1nc(C2CC2)ncc1-c1ccccc1Br [Ex. 312]
herbicidal activity [1, 13]: very good (a very good herbicidal activity is given at values of at least 85) | herbicidal activity ([1]; post-emergence, 500 g/ha): very good (a very good herbicidal activity is given at values of at least 85) | herbicidal activity ([3]; 500 g/ha): very good (a very good herbicidal activity is given at values of at least 85) | herbicidal activity [4, 13]: very good (a very good herbicidal activity is given at values of at least 85) | herbicidal activity ([4]; post-emergence, 500 g/ha): very good (a very good herbicidal activity is given at values of at least 85) | herbicidal activity ([6]; 500 g/ha): very good (a very good herbicidal activity is given at values of at least 85)

CC1OC1c1nc(C2CC2)ncc1-c1ccccc1Br (stereo not drawn) [Ex. 213]
herbicidal activity ([1]; post-emergence, 2000 g/ha): very good (a very good herbicidal activity is given at values of at least 85) | herbicidal activity [12]: very good (a very good herbicidal activity is given at values of at least 85) | herbicidal activity ([4]; post-emergence, 2000 g/ha): very good (a very good herbicidal activity is given at values of at least 85) | herbicidal activity ([8]; 2000 g/ha): good (A good herbicidal activity is given at values of at least 70) | herbicidal activity [9]: good (A good herbicidal activity is given at values of at least 70) | herbicidal activity [10]: good (A good herbicidal activity is given at values of at least 70)

CCCc1nc(C)c(-c2nc(C3CC3)ncc2-c2ccccc2Cl)o1 [Ex. 313]
herbicidal activity ([1]; post-emergence, 1000 g/ha): very good (a very good herbicidal activity is given at values of at least 85) | herbicidal activity ([3]; 1000 g/ha): very good (a very good herbicidal activity is given at values of at least 85) | herbicidal activity [4, 14]: very good (a very good herbicidal activity is given at values of at least 85) | herbicidal activity ([4]; post-emergence, 1000 g/ha): very good (a very good herbicidal activity is given at values of at least 85) | herbicidal activity ([7]; 1000 g/ha): very good (a very good herbicidal activity is given at values of at least 85)
